Experimental data as given in patent US12371664B2, “Medium for direct differentiation of pluripotent stem cell-derived mesenchymal stem cell, method for preparing mesenchymal stem cell by using same, and mesenchymal stem cell prepared thereby” (CHA BIOTECH CO., LTD., priority 2018, dated 2025).

How the values were obtained:
[1] = system: human embryonic stem cells; experiment: Analysis of cytomorphological features (spindle shape) under a phase-contrast microscope; type: cell-based; settings: FIG. 10; 10 μM RS1, 10 μM Y27632, 1 μM SB431542 as applicable
Source text: For analysis of cytomorphological features of mesenchymal stem cells obtained in Example 1 and Comparative Example 1, a mesenchymal stem cell-specific proliferation pattern (spindle shape) was identified under a phase-contrast microscope (Nikon TE-2000), and the results are shown in FIGS. 2 and 3, respectively.
For analysis of cytomorphological difference by treatment with the DNA repair agent or the ROCK inhibitor alone on the basis of period, morphologies of cells of Example 1 and Comparative Examples 2 and 3 were analyzed in the same manner as in Experimental Example 1. As a control, cells treated with the TGF-β inhibitor SB431542 alone without being treated with both the DNA repair agent and the ROCK inhibitor were used, and the results are shown in FIG. 10.

[2] = system: transcription factor required for endodermal differentiation / mesodermal differentiation; settings: background art; cited from earlier work

## NC(=O)c1ccc(-c2nc(-c3ccc4c(c3)OCO4)c(-c3ccccn3)[nH]2)cc1.O [SB431542, 4-[4-(1,3-benzodioxol-5-yl)-5-(2-pyridinyl)-1H-imidazol-2-yl]-benzamide hydrate]
[1]
  cytomorphological observation (mesenchymal stem cell proliferation pattern of the spindle shape): most of the cells disappeared on the 30th day and uniformity deteriorated
[2]
  concentration having effects on inhibiting the transcription factor for endodermal differentiation and increasing that for mesodermal differentiation: ≥ 1 µM
